This is an account of results in patent publication US9650404B2 (RESEARCH FOUNDATION OF THE CITY UNIVERSITY OF NEW YORK, priority 2010, dated 2017).

In data set [1] the target is T1, Amyloid βeta (Aβeta) fragment 25-35 (Homo sapiens, UniProt P05067).
T1 construct: Amyloid βeta (Aβeta) fragment 25-35 (Sigma A-4559); purchased Sigma A-4559
As to the kind of experiment: Dissolution of Amyloid beta fragments (transmission electron microscopy). The note with it: for concentration at which the compound works in dissolving amyloid aggregates: Aβeta 25-35 50 μg/ml, 37° C., 6 days. Type of data set: biochemical. As to the method:
Amyloid βeta (Aβeta) fragment 25-35 (Sigma A-4559) was diluted in water to a stock of 1 mg/ml. […] Samples were incubated at 37° C. for 6 days. Aggregation of the protein fragment was determined using transmission electron microscopy. 200 mesh carbon coated grids (Electron Microscopy Sciences) were used and prepared for negative staining by adding 5 μl of incubation mixture to the grid surface for one minute, followed by drying the grid with filter paper and contrasting with 5 μl of freshly filtered 2% phosphotungstic acid (pH=7.2) for one minute. Once grids were dry, examination was done using the FEI Tecnai Spirit at the College of Staten Island's Advanced Imaging Facility. Micrographs were captured using an AMT CCD camera.

Data set [2] in a line: Solubility study via UV-Vis spectroscopy (direct solubility in water).
Data set [3] deals with cultured hippocampal slices (normal brain tissue). Put plainly: MTT cell viability assay on cultured hippocampal slices. Type of data set: cell-based, mouse. The note with it: for cell viability (MTT) versus control: overnight, hippocampal slices. As to the method:
To assess the viability of the normal brain tissue in presence of the sweet curry MTT assay on cultured hippocampal slices were performed.
Mouse pups of specific ages were anesthetized with ketamine (100 mg/kg) and decapitated. Under sterile conditions, the brains were isolated and then cut at 60° from the longitudinal fissure at the top using a hippocampus-dissecting tool to expose the hippocampus. The hemispheres containing the hippocampi were then placed in modified Gey's balanced salt solution (mGBSS) at 4° C. for 30-40 minutes while bubbling a mixture of 95% O2 and 5% CO2. Individual hippocampi were isolated using dissection tool and then […] thick transverse slices were prepared using a tissue chopper (Stoelting, Wood Dale, Ill., USA). The slices were placed in ice cold mGBSS and inspected using a dissection microscope for the presence of uninterrupted bright transparent neuronal layers characteristic of the hippocampal structure. Only such slices were placed on Millicell CM filters (Millipore, Bedford, Mass., USA). The filters were placed in a six well dish with 1 ml of medium in each well. The slices were kept on high K^+ culture medium (25% horse serum, 50% Basal Essential Media-Eagles, 25% Eagle's Balanced Salt Solution (EBSS), 25 mM Na-HEPES, 1 mM Glutamine, 28 mM Glucose, pH 7.2) for the first two days. After incubation at 32° C. in a 5% CO2 atmosphere, the culture medium was changed to physiological K^+ slice culture medium (20% dialyzed fetal bovine serum, 5% Basal Essential Media-Eagles, and EBSS modified to adjust the K^+ concentration to 2.66 mM). After 20% dialyzed serum treatment for two days and the slices were placed in 5% serum medium (same medium as above but with 5% serum) for two days.
Hippocampal slices from adult mice brain were cultured as described by Mehta et al (2007). After six days in vitro the slices were treated with different concentrations of the sweet curry (i.e., 8 nM, 8 μM and 80 μM respectively) overnight along with the slices treated with the carrier as control.
After the treatment with sweet curry, slices from each treatment group were placed in 400 μl PBS in one well of 48-well plate and then treated with 200 μl of MTT (5 mg/ml) per well with gentle mixing at 37° C. for 2 hours. The slices were triturated to homogenize with the help of a micropipette. After that 800 μl of lysis buffer (20% SDS, 50% dimethylformamide) was added to each well and the plate was sealed and incubated overnight at 37° C. with gentle mixing. Now 100 μl mix from each well was taken in respective wells of a 96 well plate in triplicates and absorbance was measured at 570 nm using a plate reader. Results obtained were normalized to the total protein content and then expressed as percent carrier-treated samples.
(In general: Formazan colour is commonly taken as a measure of viable cells.)

The nature of data set [4]: Antioxidant potentiality assay by linoleic acid peroxidation (thiocyanide method). The note with it: in water, aqueous medium; FIG. 1. As to the method:
0.28 gm of linoleic acid, 0.28 gm of tween 40 as emulsifier and 50 ml of phosphate buffer (0.2 M, pH 7) were used to prepare a linoleic acid emulsion. The curcuminoids (5 mg per ml) were dissolved in water and 0.5 ml of each one of them was pipetted out into different test-tubes. Then 2.5 ml of linoleic acid emulsion was added to each one of them followed by the addition of 2.5 ml of phosphate buffer. All the tubes were incubated at 37° C. for 7 days. The mixture prepared as above without test sample was the control one. At the regular interval of 24 hours, 0.1 ml of the aliquots were drawn out of the incubation mixture and mixed with 5 ml of 75% ethanol, 0.1 ml of 30% ammonium thiocyanate and 0.1 ml of 20 mM ferrous chloride in 3.5% HCl. The tubes were allowed to stand in room temperature for 3 minutes. Spectrophotometric analysis was done at 500 nm. All the tests were carried out in duplicate and averaged. Anoxidant activity=[1-increase in absorbance of the sample/increase in absorbance of control]*100.

The structures appear in SMILES notation. ≈ marks a conversion by molar mass, not a printed value. Entries after “also recorded” stand apart in the source; their conditions may differ.

By solubility is commonly meant the concentration that dissolves in the medium under given conditions. Higher therefore signals a readily soluble substance.

Turning to `COc1cc(/C=C/C(=O)CC(=O)/C=C/c2ccc(O)c(OC)c2)ccc1O` [curcumin, (1E,6E)-1,7-bis(4-hydroxy-3-methoxyphenyl)hepta-1,6-diene 3,5-dione, reference compound], in data set [1] (electron micrographs), the “concentration at which the compound works in dissolving amyloid aggregates” value came out at 8 µM.

In data set [2] (deionized water, water, thermodynamic from solid), `COc1cc(/C=C/C(=O)CC(=O)/C=C/c2ccc(OCc3cn(CCOCCOCCOC4OC(CO)C(O)C(O)C4O)nn3)c(OC)c2)ccc1O` (centres unmarked) [Compound 1d, curcumin-“Clicked”-mono-galactose] showed a solubility of 6 mM (≈ 4460 µg/mL). Moreover, the “solubility in water relative to curcumin and derivatives” value in data set [2] (water (plasma model), listed as Sweet curry 1d) was “far superior solubility compared to curcumin in water; also recorded: superiorly soluble in water compared to Curcumin and derivatives 1a and 1b”. Besides, the “effect on normal brain tissue (viability), conclusion” value in data set [3] (8 nM to 80 μM) is recorded as “no harmful effect on the normal brain tissue”. For the same compound, the “cell viability (MTT) versus control” value is “near the control samples” in data set [3] (8 nM), “near the control samples” in data set [3] (8 μM) and “a little higher than the control samples” in data set [3] (80 μM). Further, in data set [1] (electron micrographs), the “concentration at which the compound works in dissolving amyloid aggregates” value turned out to be 8 nmol. The “effectiveness in dissolving amyloid aggregates” value in data set [1] (electron micrographs) is listed as “significantly more effective than curcumin in dissolving amyloid aggregates”. For the same compound, in data set [1] (ratio of working concentrations), the “effectiveness in dissolving amyloid aggregates relative to curcumin” value is 1000 times. Further, the “anti-oxidant potential (AOP), comparison in words” value in data set [4] is given as “much better antioxidant than Curcumin 1 as well as other curcumin derivatives (1a,1b)”.
